Data: patent US20210051963A1, “METHODS AND COMPOSITIONS TO IMPROVE PLANT HEALTH AND/OR PLANT PERFORMANCE” (PLANTRESPONSE BIOTECH, S.L., priority 2017, published 2021)

Key:
[1] = tested on: Sclerotinia sclerotiorum strain CH109; assay: White mold disease index in pepper plants treated with PRBT or 6-HP-2CA; assay type: in vivo; conditions: for Disease index 4 dpi / Disease index 6 dpi: inoculated pepper var. Murano, 10 ml/plant, score 0-4
Method: Pepper plants var. Murano were sown on Oct. 20, 2016 and distributed in random blocks of 3 plants with 4 replicates (12 plants per treatment) and grown in a standard greenhouse. PRBT treated plants were sprayed on Nov. 23, 2016 with (0.038 g L^−1) PRBT at 10 ml/plant or with (0.01 g L^−1) 6-hydroxypiperidine-2-carboxylic acid (6-HP-2CA) or with (0.1 g L^−1) 6-HP-2CA or with (0.01 g L^−1) 6-HP-2CA formulated with an adjuvant or with (0.1 g L^−1) 6-HP-2CA (0.01 g L^−1) formulated with an adjuvant at 10 ml/plant. Two days later plants were inoculated with 10 ml/plant of a foliar spray of blended Sclerotinia sclerotiorum strain CH109 mycelium that had been grown to optical density at 600 nm of 1.7. Plants were kept at 100% relative humidity for four days and then humidity was lowered to 80% for the rest of the experiment. Plants were then evaluated 4, and 6 days post inoculation (dpi) according to a disease severity index score were 0 corresponds to no symptoms and 4 to a dead plant. No statistically significant differences among treatments with the same letter (LSD method, p=0.05)

[2] = tested on: Sclerotinia sclerotiorum strain CH109; assay: White mold disease index in tomato plants treated with PRBT, 6-HP-2CA or 6-OXO-2CA; assay type: in vivo; conditions: for disease index vs untreated inoculated tomato plants: PRBT 0.054 g L-1, 6-HP-2CA 0.1 g/l, 6-OXO-2CA 0.1 g/l, 10 and 14 dpi; for Disease Control (%) / Disease index (10 dpi) / Disease index (15 dpi): inoculated tomato var. Money Maker, PRBT 0.054 g/L, 6-HP-2CA or 6-OXO-2CA 0.1 g/L, 25 ml/plant; for Disease index (10 dpi) / Disease index (15 dpi): score 0-5
Method: Tomato plants var. Money Maker were sown on Dec. 13, 2016, distributed in random blocks of 9 plants with 4 replicates (36 plants per treatment) and grown in a standard greenhouse. Treated plants were sprayed on Mar. 6, 2017 with 25 ml/plant at 3 ml/1 (0.054 g L^−1) of PRBT (with surfactant 2:1, v/w, antifoam and biocide) or with 25 ml (0.1 g L^−1) of 6-hydroxypiperidine-2-carboxylic acid (6-HP-2CA), or with 25 ml (0.1 g 1-1) of 6-oxopiperidine-2-carboxylic acid (6-OXO-2CA).
Two days later plants were inoculated with 25 ml/plant of a foliar spray of blended Sclerotinia sclerotiorum strain CH109 mycelium that had been grown to optical density at 600 nm of 0.8. Plants were kept at 100% relative humidity for seven days and then humidity was lowered to 80% for the rest of the experiment. Plants were then evaluated at 10 and 14 days post inoculation (dpi) according to a disease severity index score were 0 corresponds to no symptoms and 5 to a dead plant. No statistically significant differences among treatments with the same letter (LSD method, p=0.05)

SMILES	disease index vs untreated inoculated pepper plants ([1]; high (0.1 g/L) concentration)	Disease index 4 dpi ([1]; 0.01 g/L)	Disease index 6 dpi ([1]; 0.01 g/L)	Disease index 4 dpi ([1]; 0.1 g/L)	Disease index 6 dpi ([1]; 0.1 g/L)	disease index vs untreated inoculated tomato plants [2]	Disease Control (%) [2]	Disease index (10 dpi) [2]	Disease index (15 dpi) [2]
O=C(O)C1CCCC(O)N1 (stereo not shown) [6-HP-2CA, 6-hydroxypiperidine-2-carboxylic acid]	significantly lower	0.9 b	2.3 b	0.2 a	0.5 a	significantly lower	11 c %	2.2 b	2.2 b
O=C1CCC[C@H](C(=O)O)N1 (stereo in doubt) [6-OXO-2CA, 6-oxopiperidine-2-carboxylic acid]						significantly lower	10 c %	2.3 b	2.3 b
